Blank lines part the entries; values can stand above or below the molecule they belong to.
Key:
[1] = molecular target: Poly [ADP-ribose] polymerase 1 (Homo sapiens, UniProt P09874); experiment: Inhibition of PARP1 (unknown origin) in presence of NAD+ by homogenous fluorescence plate assay
[2] = Cytoprotective activity against H2O2-induced cytotoxicity in chicken RBC assessed as cell viability pre-incubated at 100 uM followed by H2O2 addition by acridine orange and ethidium bromide staining method (reference value: 41 +/- 2.08%); format: functional; conditions: Gallus gallus, Erythrocyte; read-out: Activity
[3] = (§1) Antioxidant activity against H2O2-induced oxidative stress in chicken RBC assessed as superoxide dismutase activity by measuring pyrogallol oxidization per mg protein pre-incubated at 100 uM followed by H2O2 addition by UV spectroscopy (reference value: 11.32 +/- 1.96 pyrogallol oxidized/min/mg of protein); format: functional, Gallus gallus, Erythrocyte
[4] = system: Erythrocyte; experiment: Cytoprotective activity against H2O2-induced genomic DNA damage in chicken RBC assessed as DNA level in comet tail region pre-incubated at 100 uM followed by H2O2 addition by single cell alkaline gel electrophoresis and fluorescent microscopy based comet assay (reference value: 45.78 +/- 3.24%); format: functional, Gallus gallus
[5] = (§2) Antioxidant activity against H2O2-induced oxidative stress in chicken RBC assessed as lipid peroxidation level by measuring malondialdehyde formation per mg protein pre-incubated at 50 uM followed by H2O2 addition by UV spectroscopy (reference value: 84.32 +/- 12.04 nmol malondialdehyde formed/mg protein); format: functional, Gallus gallus, Erythrocyte
[6] = Antioxidant activity against H2O2-induced oxidative stress in chicken RBC assessed as catalase activity by measuring H2O2 utilization per mg protein pre-incubated at 50 uM followed by H2O2 addition by UV spectroscopy (reference value: 15.97 +/- 2.12 nmol of H2O2 utilized/min/mg of protein); format: functional, Gallus gallus, Erythrocyte
[7] = Antioxidant activity against H2O2-induced oxidative stress in chicken RBC assessed as catalase activity by measuring H2O2 utilization per mg protein pre-incubated at 100 uM followed by H2O2 addition by UV spectroscopy (reference value: 15.97 +/- 2.12 nmol of H2O2 utilized/min/mg of protein); format: functional, Gallus gallus, Erythrocyte
[8] = as §2, with “25” for “50”; format: functional, Gallus gallus, Erythrocyte
[9] = as §1, with “25” for “100”; format: functional, Gallus gallus, Erythrocyte
[10] = as §1, with “50” for “100”; format: functional, Gallus gallus, Erythrocyte
[11] = as §2, with “75” for “50”; format: functional, Gallus gallus, Erythrocyte
[12] = Antioxidant activity against H2O2-induced oxidative stress in chicken RBC assessed as catalase activity by measuring H2O2 utilization per mg protein pre-incubated at 25 uM followed by H2O2 addition by UV spectroscopy (reference value: 15.97 +/- 2.12 nmol of H2O2 utilized/min/mg of protein); format: functional, Gallus gallus, Erythrocyte
[13] = Antioxidant activity against H2O2-induced oxidative stress in chicken RBC assessed as catalase activity by measuring H2O2 utilization per mg protein pre-incubated at 75 uM followed by H2O2 addition by UV spectroscopy (reference value: 15.97 +/- 2.12 nmol of H2O2 utilized/min/mg of protein); format: functional, Gallus gallus, Erythrocyte
[14] = system: Erythrocyte; experiment: Cytoprotective activity against H2O2-induced genomic DNA damage in chicken RBC assessed as DNA level in comet head region pre-incubated at 100 uM followed by H2O2 addition by single cell alkaline gel electrophoresis and fluorescent microscopy based comet assay (reference value: 52.23 +/- 3.98%); format: functional, Gallus gallus
[15] = Toxicity against chicken RBC assessed as effect on cell viability at 25 to 100 uM by acridine orange and ethidium bromide staining method; format: cell-based, Gallus gallus; conditions: erythrocyte
[16] = as §1, with “75” for “100”; format: functional, Gallus gallus, Erythrocyte
[17] = as §2, with “100” for “50”; format: functional, Gallus gallus, Erythrocyte

Sequence of Poly [ADP-ribose] polymerase 1 (P09874 whole entry): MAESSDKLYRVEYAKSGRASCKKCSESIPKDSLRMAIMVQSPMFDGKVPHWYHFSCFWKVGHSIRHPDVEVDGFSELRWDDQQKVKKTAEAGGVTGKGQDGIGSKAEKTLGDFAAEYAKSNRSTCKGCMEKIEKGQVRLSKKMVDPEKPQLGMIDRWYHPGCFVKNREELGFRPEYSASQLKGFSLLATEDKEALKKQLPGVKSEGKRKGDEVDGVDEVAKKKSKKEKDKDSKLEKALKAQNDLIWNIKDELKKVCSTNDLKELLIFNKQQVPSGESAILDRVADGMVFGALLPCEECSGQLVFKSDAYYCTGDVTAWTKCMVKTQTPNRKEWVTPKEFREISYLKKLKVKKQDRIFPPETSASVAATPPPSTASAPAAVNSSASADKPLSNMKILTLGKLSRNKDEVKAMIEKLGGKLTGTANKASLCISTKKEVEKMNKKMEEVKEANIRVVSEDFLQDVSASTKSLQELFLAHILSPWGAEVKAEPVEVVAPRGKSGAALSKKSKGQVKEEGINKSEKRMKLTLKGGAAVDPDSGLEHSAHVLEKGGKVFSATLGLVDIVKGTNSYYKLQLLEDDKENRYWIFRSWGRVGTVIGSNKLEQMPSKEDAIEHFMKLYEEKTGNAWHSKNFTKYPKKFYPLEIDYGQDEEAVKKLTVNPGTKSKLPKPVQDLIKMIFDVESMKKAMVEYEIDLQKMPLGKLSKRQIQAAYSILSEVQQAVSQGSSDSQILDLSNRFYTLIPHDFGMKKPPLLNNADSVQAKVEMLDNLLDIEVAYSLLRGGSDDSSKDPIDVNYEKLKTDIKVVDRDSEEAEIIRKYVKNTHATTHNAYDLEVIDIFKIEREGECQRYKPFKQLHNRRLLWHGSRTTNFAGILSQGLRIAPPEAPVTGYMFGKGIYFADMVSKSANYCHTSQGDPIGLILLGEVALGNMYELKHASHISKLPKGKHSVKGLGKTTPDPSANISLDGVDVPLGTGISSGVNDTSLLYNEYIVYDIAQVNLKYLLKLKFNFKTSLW

IC50 [1]: 53.2 nM
Structure (SMILES): O=C1NCCc2c(OCCCCN3CCCCC3)cccc21

Structure (SMILES): COc1cc2c(cc1OC)C1(O)C3C4c5ccccc5C(c5ccccc54)C3C(=O)N1CC2 (stereo unspecified)
viability at 100 µM [2]: 87.3%
Activity [3]: 27.87 µmol/min
Activity [4]: 16.55%
Activity [5]: 35.6 nmol/mg protein
Activity [6]: 55.89 nmol/min/mg
Activity [7]: 67.91 nmol/min/mg protein
Activity [8]: 51.48 nmol/mg protein
Activity [9]: 15.86 µmol/min
Activity [10]: 19.63 µmol/min
Activity [11]: 24.44 nmol/mg protein
Activity [12]: 46.11 nmol/min/mg
Activity [13]: 65.12 nmol/min/mg
Activity [14]: 82.45%
Activity [15]: Non-toxic
Activity [16]: 23.58 µmol/min
Activity [17]: 18.1 nmol/mg protein

Structure (SMILES): COc1ccc(OC)c2c1CCN1C(=O)c3ccccc3C21O (stereo unspecified)
viability at 100 µM [2]: 72%
Activity [3]: 27.76 µmol/min
Activity [4]: 8.55%
Activity [5]: 28.21 nmol/mg protein
Activity [6]: 31.76 nmol/min/mg
Activity [7]: 68.46 nmol/min/mg protein
Activity [8]: 36.23 nmol/mg protein
Activity [9]: 16.32 µmol/min
Activity [10]: 19.24 µmol/min
Activity [11]: 14.24 nmol/mg protein
Activity [12]: 23.65 nmol/min/mg
Activity [13]: 47.53 nmol/min/mg
Activity [14]: 90.45%
Activity [15]: Non-toxic
Activity [16]: 23.76 µmol/min
Activity [17]: 20.14 nmol/mg protein

Structure (SMILES): COc1cc2c(cc1OC)C1(O)c3ccccc3C(=O)N1CC2 (stereo unspecified)
viability at 100 µM [2]: 79.3%
Activity [3]: 28.45 µmol/min
Activity [4]: 34.44%
Activity [5]: 29.27 nmol/mg protein
Activity [6]: 43.65 nmol/min/mg
Activity [7]: 64.87 nmol/min/mg protein
Activity [8]: 38.46 nmol/mg protein
Activity [9]: 17.34 µmol/min
Activity [10]: 19.35 µmol/min
Activity [11]: 16.54 nmol/mg protein
Activity [12]: 26.54 nmol/min/mg
Activity [13]: 48.43 nmol/min/mg
Activity [14]: 65.56%
Activity [15]: Non-toxic
Activity [16]: 23.98 µmol/min
Activity [17]: 18.32 nmol/mg protein

Structure (SMILES): COc1ccc2c(c1OC)CCN1C(=O)c3ccccc3C21O (stereo unspecified)
viability at 100 µM [2]: 65.6%
Activity [3]: 18.13 µmol/min
Activity [4]: 42.97%
Activity [5]: 46.37 nmol/mg protein
Activity [6]: 16.25 nmol/min/mg
Activity [7]: 16.37 nmol/min/mg protein
Activity [8]: 53.65 nmol/mg protein
Activity [9]: 13.19 µmol/min
Activity [10]: 15.96 µmol/min
Activity [11]: 41.21 nmol/mg protein
Activity [12]: 15.31 nmol/min/mg
Activity [13]: 16.46 nmol/min/mg
Activity [14]: 56.64%
Activity [15]: Non-toxic
Activity [16]: 15.54 µmol/min
Activity [17]: 48.32 nmol/mg protein

Structure (SMILES): COc1cc2c(cc1O)C1(O)c3ccccc3C(=O)N1CC2 (stereo unspecified)
viability at 100 µM [2]: 93.6%
Activity [3]: 30.94 µmol/min
Activity [4]: 7.34%
Activity [5]: 47.15 nmol/mg protein
Activity [6]: 51.49 nmol/min/mg
Activity [7]: 70.66 nmol/min/mg protein
Activity [8]: 52.71 nmol/mg protein
Activity [9]: 18.616 µmol/min
Activity [10]: 21.63 µmol/min
Activity [11]: 26.35 nmol/mg protein
Activity [12]: 29.52 nmol/min/mg
Activity [13]: 62.57 nmol/min/mg
Activity [14]: 92.3%
Activity [15]: Non-toxic
Activity [16]: 28.863 µmol/min
Activity [17]: 15.02 nmol/mg protein

Structure (SMILES): COc1ccc2c(c1)CCN1C(=O)c3ccccc3C21O (stereo unspecified)
viability at 100 µM [2]: 53.6%
Activity [3]: 11.37 µmol/min
Activity [4]: 41.96%
Activity [5]: 56.32 nmol/mg protein
Activity [6]: 16.25 nmol/min/mg
Activity [7]: 16.37 nmol/min/mg protein
Activity [8]: 62.98 nmol/mg protein
Activity [9]: 12.65 µmol/min
Activity [10]: 11.87 µmol/min
Activity [11]: 48.12 nmol/mg protein
Activity [12]: 15.31 nmol/min/mg
Activity [13]: 16.46 nmol/min/mg
Activity [14]: 57.29%
Activity [15]: Non-toxic
Activity [16]: 11.48 µmol/min
Activity [17]: 42.14 nmol/mg protein

Structure (SMILES): O=C1c2ccccc2C2(O)c3ccc(Br)cc3CCN12 (stereo unspecified)
viability at 100 µM [2]: 75.3%
Activity [3]: 21.58 µmol/min
Activity [4]: 4.55%
Activity [5]: 54.24 nmol/mg protein
Activity [6]: 51.14 nmol/min/mg
Activity [7]: 65.007 nmol/min/mg protein
Activity [8]: 70.74 nmol/mg protein
Activity [9]: 12.8667 µmol/min
Activity [10]: 14.05 µmol/min
Activity [11]: 34.52 nmol/mg protein
Activity [12]: 36.597 nmol/min/mg
Activity [13]: 56.05 nmol/min/mg
Activity [14]: 94.32%
Activity [15]: Non-toxic
Activity [16]: 17.51 µmol/min
Activity [17]: 16.75 nmol/mg protein

Structure (SMILES): Cc1ccc2c(c1)CCN1C(=O)c3ccccc3C21O (stereo unspecified)
viability at 100 µM [2]: 82.3%
Activity [3]: 18.6 µmol/min
Activity [4]: 11.44%
Activity [5]: 43.76 nmol/mg protein
Activity [6]: 50.35 nmol/min/mg
Activity [7]: 65.35 nmol/min/mg protein
Activity [8]: 53.66 nmol/mg protein
Activity [9]: 11.51 µmol/min
Activity [10]: 14.56 µmol/min
Activity [11]: 26.52 nmol/mg protein
Activity [12]: 31.71 nmol/min/mg
Activity [13]: 54.56 nmol/min/mg
Activity [14]: 87.56%
Activity [15]: Non-toxic
Activity [16]: 15.08 µmol/min
Activity [17]: 16.95 nmol/mg protein

Structure (SMILES): COc1cc2c(c(OC)c1)C1CCC(=O)N1CC2 (stereo unspecified)
viability at 100 µM [2]: 68.3%
Activity [3]: 29.34 µmol/min
Activity [4]: 45.8%
Activity [5]: 19.12 nmol/mg protein
Activity [6]: 46.35 nmol/min/mg
Activity [7]: 70.43 nmol/min/mg protein
Activity [8]: 28.38 nmol/mg protein
Activity [9]: 17.23 µmol/min
Activity [10]: 19.43 µmol/min
Activity [11]: 16.87 nmol/mg protein
Activity [12]: 38.65 nmol/min/mg
Activity [13]: 58.28 nmol/min/mg
Activity [14]: 54.2%
Activity [15]: Non-toxic
Activity [16]: 24.35 µmol/min
Activity [17]: 16.14 nmol/mg protein

Structure (SMILES): COc1ccc2c(c1OC)CCN1C(=O)CCCC21 (stereo unspecified)
viability at 100 µM [2]: 86.6%
Activity [3]: 12.98 µmol/min
Activity [4]: 9.75%
Activity [5]: 54.23 nmol/mg protein
Activity [6]: 25.95 nmol/min/mg
Activity [7]: 31.43 nmol/min/mg protein
Activity [8]: 61.45 nmol/mg protein
Activity [9]: 11.76 µmol/min
Activity [10]: 11.48 µmol/min
Activity [11]: 48.23 nmol/mg protein
Activity [12]: 17.36 nmol/min/mg
Activity [13]: 28.47 nmol/min/mg
Activity [14]: 73.84%
Activity [15]: Non-toxic
Activity [16]: 11.95 µmol/min
Activity [17]: 49.54 nmol/mg protein

From ChEMBL document CHEMBL3393053, “Synthesis and biological evaluation of isoindoloisoquinolinone, pyroloisoquinolinone and benzoquinazolinone derivatives as poly(ADP-ribose) polymerase-1 inhibitors” (Bioorg Med Chem, 2015)
